According to patent EP1909102A1, “Method for subgroup analysis in subjects having or being suspected of having inflammatory disease, use of anti-p38mapk antibodies, kits and their use” (c-a-i-r biosciences GmbH, priority 2006, dated 2008):

What was measured:
p38MAPKα = p38MAPKα (Homo sapiens, UniProt Q16539); settings: read-out: IC50 for p38MAPKα; disclosed in WO 2004/110990; cited from earlier work
[1] = tested on: patients with moderate to severe rheumatoid arthritis; settings: VeRA trial, cohort of 315 patients with moderate to severe rheumatoid arthritis; placebo effect about 30 %; cited from earlier work
[2] = tested on: patients with moderate to severe rheumatoid arthritis; assay: VeRA trial of p38MAPK inhibitor in rheumatoid arthritis patients; assay type: in vivo; settings: according to a Monte Carlo simulation of the distribution of the effects
Method: It has been claimed that p38MAPK inhibitors were of benefit in treating a large variety of disorders. […] In the VeRA trial, which was conducted to evaluate treatment effects in terms of characteristic manifestations of the disease such as tender joints, swollen joints, morning stiffness and disease activity in a cohort of 315 patients with moderate to severe rheumatoid arthritis, approximately 40 % of patients were responsive to treatment with the p38MAPK inhibitor VX-702, compared to a placebo effect of about 30 %, arguing for a biochemical net response rate of about 28 % according to a Monte Carlo simulation of the distribution of the effects. So far, no explanation for this evident dichotomy between responders and non-responders has been proposed yet.

Sequence of p38MAPKα (Q16539 whole entry): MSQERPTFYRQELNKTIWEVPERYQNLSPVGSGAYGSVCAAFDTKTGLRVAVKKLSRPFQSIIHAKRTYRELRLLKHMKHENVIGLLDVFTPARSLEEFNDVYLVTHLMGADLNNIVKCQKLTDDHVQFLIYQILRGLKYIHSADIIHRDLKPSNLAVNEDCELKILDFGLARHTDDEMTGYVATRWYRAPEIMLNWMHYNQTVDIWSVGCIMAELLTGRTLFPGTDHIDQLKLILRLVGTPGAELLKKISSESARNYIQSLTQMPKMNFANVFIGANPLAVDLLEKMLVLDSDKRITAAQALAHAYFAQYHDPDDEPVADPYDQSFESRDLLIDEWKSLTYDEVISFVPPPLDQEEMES

Row | Compound | IC50 (p38MAPKα) | patients responsive to treatment [1] | biochemical net response rate [2]
1 | Fc1ccc(-c2nc3occn3c2-c2ccnc(NC3CC3)n2)cc1 [4-(4-fluorophenyl)-5-(2-[cyclopropyl-amino]-pyrimidyl-4-yl)-imidazooxazole] | 0.44 nM | – | –
2 | NC(=O)c1ccc(N(C(N)=O)c2c(F)cccc2F)nc1-c1ccc(F)cc1F [VX-702] | – | approximately 40% | about 28%
